In US20240299421A1, “CANNABIDIOL COMPOSITIONS AND USES THEREOF” (PHARMOTECH SA, priority 2020, published 2024):
“Also recorded” adds a separate entry of the source.

Key:
IBH horse skin lesions = experiment: Topical CBD oil formulation on skin lesions of horses diagnosed with IBH (pruritus score, IBH lesion score); type: in vivo, Equus caballus (horse) and Equus ferus caballus (poney); conditions: 1% (w/w) CBD in sesame oil, topical once daily, 4 weeks
Experimental: (§1) The application was made by hand (using a cotton) and a glove was used for massaging the product into the affected skin area. Each horse received at minimum 1 bottle of 100 ml on Day 1 and 1 Bottle on Day 14, administration was indicated to be daily. Larger volumes have been used for larger lesions.
(§2) Safety parameters were measured by hematology measures and serum amyloid A (SSA) measures and IBH lesion score was calculated as detailed in Fettelschoss-Gabriel et al., 2018, J Allergy Clin Immunol 142(4): 1194-1205 at the beginning and at the end of the study as a disease specific observation. […] Pruritus was scored from 1-5 for each skin area affected and was calculated taking into account 3 main factors: tail scratching; mane scratching and belly scratching on ground/floor. SUM Score Pruritus-Day 1: 6 Pruritus score was calculated for Day 1, Day 14, Day 28
Then, the mean was calculated. Main pruritus signs are: tail scratching, mane scratching, face scratching and sometimes rolling on the ground for belly scratching.

CB2 receptors = CB2 receptors (Homo sapiens, UniProt P34972); conditions: compared with THC; cited from earlier work
[1] = LC-MS/MS CBD dosing in blood/plasma after topical application; type: in vivo, Equus caballus (horse) and Equus ferus caballus (poney)
[2] = Safety parameters by hematology measures; type: in vivo, Equus caballus (horse) and Equus ferus caballus (poney); conditions: 1% (w/w) CBD topical, 4 weeks
Experimental: as §1, §2

Chain of CB2 receptors (P34972 whole entry): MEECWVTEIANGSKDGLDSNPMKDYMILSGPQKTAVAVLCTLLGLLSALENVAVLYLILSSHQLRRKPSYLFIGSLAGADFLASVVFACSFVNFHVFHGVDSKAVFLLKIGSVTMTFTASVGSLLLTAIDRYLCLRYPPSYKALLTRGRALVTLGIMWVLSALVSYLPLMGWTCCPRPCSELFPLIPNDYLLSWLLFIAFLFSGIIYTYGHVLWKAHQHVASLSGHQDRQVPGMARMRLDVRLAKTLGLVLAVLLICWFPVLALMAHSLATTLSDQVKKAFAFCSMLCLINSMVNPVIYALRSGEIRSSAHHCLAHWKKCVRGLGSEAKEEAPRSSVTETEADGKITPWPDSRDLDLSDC

C=C(C)[C@@H]1CCC(C)=C[C@H]1c1c(O)cc(CCCCC)cc1O [CBD, 2-[(1R,6R)-6-isopropenyl-3-methylcyclohex-2-en-1-yl]-5-pentylbenzene-1,3-diol]
IBH symptoms during treatment (IBH lesion score) (IBH horse skin lesions; 11 animals with mild to moderate IBH): clear decrease | pruritus symptoms during treatment (pruritus score) (IBH horse skin lesions; score Day 1, Day 14, Day 28): reduce pruritus score; also recorded: clear decrease | affinity for CB2 receptors (CB2 receptors): very low affinity | CBD concentration in plasma ([1]; 1% topical concentration, LC-MS/MS): not found in detectable concentrations | systemic absorption ([1]; at 1% topical concentration): negligible | WBC count [2]: No particular trend | eosinophile count [2]: No particular trend
